Data from ChEMBL document CHEMBL1909046, “DrugMatrix in vitro pharmacology data”.

test system: not listed separately; assay: DRUGMATRIX: ATPase, Na+/K+ enzyme inhibition (substrate: ATP); type: tissue-based, Sus scrofa, Heart; conditions: Not Active = under 50% inhibition at 10 µM

Row | Compound | IC50 | Ki
1 | CC(=O)Nc1ccc2c(c1)Cc1ccccc1-2 [2-ACETYLAMINOFLUORENE] | Not Active | Not Active
2 | C[N+](C)(C)CCOC(N)=O.[Cl-] [CARBACHOL] | Not Active | Not Active
3 | Oc1ncnc2[nH]ncc12 [ALLOPURINOL] | Not Active | Not Active

test system: not listed separately; assay: DRUGMATRIX: Atrial Natriuretic Factor (ANF) radioligand binding (ligand: [125I] ANF (rat)); type: cell membranes, Cavia porcellus, Dunkin-Hartley, Adrenal gland, Membrane; conditions: Not Active = under 50% inhibition at 10 µM

Row | Compound | IC50 | Ki
4 | CC(=O)Nc1ccc2c(c1)Cc1ccccc1-2 [2-ACETYLAMINOFLUORENE] | Not Active | Not Active
5 | C[N+](C)(C)CCOC(N)=O.[Cl-] [CARBACHOL] | Not Active | Not Active
6 | Oc1ncnc2[nH]ncc12 [ALLOPURINOL] | Not Active | Not Active

test system: not listed separately; assay: DRUGMATRIX: Calcium Channel Type L, Phenylalkylamine radioligand binding (ligand: [3H] (-)-Desmethoxyverapamil (D-888)); type: cell membranes, Rattus norvegicus, Wistar, Brain, Membrane; conditions: Not Active = under 50% inhibition at 10 µM

Row | Compound | IC50 | Ki
7 | CC(=O)Nc1ccc2c(c1)Cc1ccccc1-2 [2-ACETYLAMINOFLUORENE] | Not Active | Not Active
8 | C[N+](C)(C)CCOC(N)=O.[Cl-] [CARBACHOL] | Not Active | Not Active
9 | Oc1ncnc2[nH]ncc12 [ALLOPURINOL] | Not Active | Not Active

molecular target: T1, C-X-C chemokine receptor type 2 (Homo sapiens, UniProt P25025); type: cell membranes, CHO-K1, Membrane; conditions: cho-k1; also: in other assays of this panel Not Active means under 50% inhibition at 10 µM
T1 sequence (P25025 whole entry): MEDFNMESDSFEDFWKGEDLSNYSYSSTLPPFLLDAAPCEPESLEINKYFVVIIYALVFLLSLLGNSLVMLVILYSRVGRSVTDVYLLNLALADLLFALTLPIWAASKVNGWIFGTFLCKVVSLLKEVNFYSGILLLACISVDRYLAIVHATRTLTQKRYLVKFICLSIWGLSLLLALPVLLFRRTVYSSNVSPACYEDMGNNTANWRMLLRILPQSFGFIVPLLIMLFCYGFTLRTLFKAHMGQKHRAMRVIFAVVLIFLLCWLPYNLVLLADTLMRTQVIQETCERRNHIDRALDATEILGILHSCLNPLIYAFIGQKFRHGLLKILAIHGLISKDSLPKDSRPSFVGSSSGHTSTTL

Row | Compound | IC50
10 | CC(=O)Nc1ccc2c(c1)Cc1ccccc1-2 [2-ACETYLAMINOFLUORENE] | Not Active
11 | C[N+](C)(C)CCOC(N)=O.[Cl-] [CARBACHOL] | Not Active
12 | Oc1ncnc2[nH]ncc12 [ALLOPURINOL] | Not Active

test system: not listed separately; assay: DRUGMATRIX: Glutamate, NMDA, Agonism radioligand binding (ligand: [3H] CGP-39653); type: cell membranes, Rattus norvegicus, Wistar, Cerebral cortex, Membrane; conditions: Not Active = under 50% inhibition at 10 µM

Row | Compound | IC50 | Ki
13 | CC(=O)Nc1ccc2c(c1)Cc1ccccc1-2 [2-ACETYLAMINOFLUORENE] | Not Active | Not Active
14 | C[N+](C)(C)CCOC(N)=O.[Cl-] [CARBACHOL] | Not Active | Not Active
15 | Oc1ncnc2[nH]ncc12 [ALLOPURINOL] | Not Active | Not Active

molecular target: T2, Nitric oxide synthase, inducible (Mus musculus, UniProt P29477); design: species or system Escherichia coli; conditions: not given;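 also: inhibition of iNOS enzyme activity measured with L-arginine as substrate; in other assays of this panel Not Active means under 50% inhibition at 10 µM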
T2 sequence (P29477 whole entry): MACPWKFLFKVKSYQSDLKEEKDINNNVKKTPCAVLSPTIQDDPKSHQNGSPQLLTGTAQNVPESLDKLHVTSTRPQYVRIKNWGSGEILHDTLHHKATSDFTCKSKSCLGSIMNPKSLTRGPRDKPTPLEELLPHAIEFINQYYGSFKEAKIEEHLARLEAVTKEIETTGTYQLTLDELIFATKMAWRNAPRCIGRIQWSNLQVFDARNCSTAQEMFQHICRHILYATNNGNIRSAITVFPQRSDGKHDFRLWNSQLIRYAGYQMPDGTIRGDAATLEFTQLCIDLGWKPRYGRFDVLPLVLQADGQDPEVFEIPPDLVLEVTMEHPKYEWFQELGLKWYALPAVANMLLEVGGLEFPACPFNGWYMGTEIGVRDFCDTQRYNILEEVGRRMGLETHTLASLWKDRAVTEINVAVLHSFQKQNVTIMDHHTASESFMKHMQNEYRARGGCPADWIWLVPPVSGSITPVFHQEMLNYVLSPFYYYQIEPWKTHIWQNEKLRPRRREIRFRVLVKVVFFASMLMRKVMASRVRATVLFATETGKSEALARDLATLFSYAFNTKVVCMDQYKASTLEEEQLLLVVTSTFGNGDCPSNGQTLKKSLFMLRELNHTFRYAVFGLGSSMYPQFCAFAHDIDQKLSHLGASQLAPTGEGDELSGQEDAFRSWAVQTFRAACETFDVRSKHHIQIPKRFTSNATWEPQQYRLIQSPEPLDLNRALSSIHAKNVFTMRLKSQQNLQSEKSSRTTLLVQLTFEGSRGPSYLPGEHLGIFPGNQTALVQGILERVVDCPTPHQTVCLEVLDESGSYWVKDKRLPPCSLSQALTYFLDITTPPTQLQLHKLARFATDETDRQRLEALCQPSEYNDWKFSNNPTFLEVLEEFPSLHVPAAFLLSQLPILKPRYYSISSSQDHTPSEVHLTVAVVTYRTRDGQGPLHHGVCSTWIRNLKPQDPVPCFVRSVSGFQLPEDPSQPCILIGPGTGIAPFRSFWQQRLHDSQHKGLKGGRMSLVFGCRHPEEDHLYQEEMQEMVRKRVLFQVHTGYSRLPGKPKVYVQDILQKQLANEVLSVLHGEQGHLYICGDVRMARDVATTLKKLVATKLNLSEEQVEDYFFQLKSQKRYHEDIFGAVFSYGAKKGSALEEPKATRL

Row | Compound | IC50
16 | CC(=O)Nc1ccc2c(c1)Cc1ccccc1-2 [2-ACETYLAMINOFLUORENE] | Not Active
17 | C[N+](C)(C)CCOC(N)=O.[Cl-] [CARBACHOL] | Not Active
18 | Oc1ncnc2[nH]ncc12 [ALLOPURINOL] | Not Active

molecular target: Delta-type opioid receptor (Homo sapiens, UniProt P41143); type: cell membranes, HEK293, Membrane; conditions: hek293; also: in other assays of this panel Not Active means under 50% inhibition at 10 µM
Sequence (P41143 whole entry): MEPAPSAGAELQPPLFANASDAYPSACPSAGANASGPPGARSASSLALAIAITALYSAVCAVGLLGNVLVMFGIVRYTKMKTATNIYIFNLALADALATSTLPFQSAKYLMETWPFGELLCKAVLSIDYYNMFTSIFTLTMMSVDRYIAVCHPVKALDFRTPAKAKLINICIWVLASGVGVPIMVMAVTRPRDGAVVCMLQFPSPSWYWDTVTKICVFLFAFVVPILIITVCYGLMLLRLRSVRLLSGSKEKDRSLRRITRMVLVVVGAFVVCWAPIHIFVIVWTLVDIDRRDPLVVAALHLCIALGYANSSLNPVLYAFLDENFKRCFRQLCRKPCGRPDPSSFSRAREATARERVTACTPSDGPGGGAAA

Row | Compound | IC50
19 | CC(=O)Nc1ccc2c(c1)Cc1ccccc1-2 [2-ACETYLAMINOFLUORENE] | Not Active
20 | C[N+](C)(C)CCOC(N)=O.[Cl-] [CARBACHOL] | Not Active
21 | Oc1ncnc2[nH]ncc12 [ALLOPURINOL] | Not Active
